According to patent publication US20020137929A1, “1 - (3-heterocyclylphenyl) isothiourea, -isourea, -guanidine and -amidine herbicidal agents” (Intellectual Property Department, BASF Aktiengesellschaft, priority 1998, published 2002):

Key:
ABUTH (Velvetleaf) [1] = assay: Postemergence herbicidal evaluation; type: in vivo, Abutilon theophrasti; details: postemergence
Outline: (§1)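 Visual 0–9 rating versus control (stand, vigor, malformation, size, chlorosis, overall appearance), taken four to five weeks post-spray. Two-week-old seedlings received roughly 0.0156–0.500 kg/ha active in acetone/water (50/50) with 0.5% TWEEN 20 via nozzle at 40 psi.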

CASOB (Sicklepod) = assay: Preemergence herbicidal evaluation; type: in vivo, Cassia obtusifolia; details: rated 4-5 weeks after treatment
Description: (§2) Results of herbicide evaluation are expressed on a rating scale (0-9). The scale is based upon a visual observation of plant stand, vigor, malformation, size, chlorosis and overall plant appearance as compared with a control.
(§3) The preemergence herbicidal activity of the test compounds of the present invention is exemplified by the following tests in which the seeds of a variety of monocotyledonous and dicotyledonous plants are separately mixed with potting soil and planted on top of approximately one inch of soil in separate pint cups. After planting, the cups are sprayed with the selected aqueous acetone solution containing test compound in sufficient quantity to provide the equivalent of about 0.0156 to 0.500 kg per hectare of test compound per cup. The treated cups are then placed on greenhouse benches, watered and cared for in accordance with conventional greenhouse procedures. From four to five weeks after treatment, the tests are terminated and each cup is examined and rated according to the rating system provided in Example 37.
(§4) The compounds evaluated are reported by compound number given in Example 37.

ZEAMX (Corn, Field) = assay: Postemergence herbicidal evaluation; type: in vivo, Zea mays; details: postemergence
Outline: as §1

ABUTH (Velvetleaf) [2] = assay: Preemergence herbicidal evaluation; type: in vivo, Abutilon theophrasti; details: rated 4-5 weeks after treatment
Outline: (§5)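 Greenhouse preemergence test: seed-soil mix sown on ~1 inch soil; aqueous acetone spray at equivalent of ~0.0156–0.500 kg/ha; greenhouse-held and watered; scored 0–9 visually at 4–5 weeks.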

[3] = system: ECHORC (Watergrass (Calif.)); assay: Preemergence weed control under flooded paddy conditions; type: in vivo, Echinochloa oryzoides; details: rated 3-4 weeks after treatment
Outline: (§6)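 Flooded-pot preemergence screen with silt loam and seeds in the upper 0.5 cm. Dose about 0.0313 to 0.500 kg/ha, delivered into flood water; visual 0-9 score after 3 to 4 weeks.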

[4] = system: IPOHE (Morningglory, Ivyleaf); assay: Preemergence herbicidal evaluation; type: in vivo, Ipomoea hederacea; details: rated 4-5 weeks after treatment
Description: as §2, §3, §4

[5] = system: IPOHE (Morningglory, Ivyleaf); assay: Postemergence herbicidal evaluation; type: in vivo, Ipomoea hederacea; details: postemergence
Outline: as §1

SETVI (Foxtail, Green) = assay: Postemergence herbicidal evaluation; type: in vivo, Setaria viridis; details: postemergence
Outline: as §1

AMBEL (Ragweed, Common) = assay: Preemergence herbicidal evaluation; type: in vivo, Ambrosia artemisifolia; details: rated 4-5 weeks after treatment
Outline: as §5

ECHCG (Barnyardgrass) = assay: Preemergence herbicidal evaluation; type: in vivo, Echinochloa crus-galli; details: rated 4-5 weeks after treatment
Outline: as §5

[6] = system: GLXMAW (Soybean, Williams); assay: Postemergence herbicidal evaluation; type: in vivo, Glycine max, (L.) Merr. cv Williams; details: postemergence
Outline: as §1

CYPSE (Flatsedge) = assay: Preemergence weed control under flooded paddy conditions; type: in vivo, Cyperus serotinus; details: 0.2500 kg/ha, rated 3-4 weeks after treatment
Outline: as §6

[7] = rate 0.0156 kg/ha, rating scale 0-9
[8] = rate 0.0313 kg/ha, rating scale 0-9
[9] = rate 0.0625 kg/ha, rating scale 0-9
[10] = rate 0.1250 kg/ha, rating scale 0-9
[11] = rate 0.2500 kg/ha, rating scale 0-9

Cn1c(C(F)(F)F)cc(=O)n(-c2cc(N=C3SCC(=O)N3Cc3ccco3)c(Cl)cc2F)c1=O [Compound 122, 3-{4-Chloro-2-fluoro-5-[(3-furfuryl-4-oxo-2-thiazolidinylidene)amino]phenyl}-1-methyl-6-(trifluoromethyl)-2,4(1H,3H)-pyrimidinedione]
herbicidal rating ABUTH (ABUTH (Velvetleaf) [1]; rate 0.0156 kg/ha): 9.0 | herbicidal rating ABUTH (ABUTH (Velvetleaf) [1]; rate 0.0313 kg/ha): 9.0 | herbicidal rating ABUTH (ABUTH (Velvetleaf) [1]; rate 0.0625 kg/ha): 9.0 | herbicidal rating ABUTH (ABUTH (Velvetleaf) [1]; rate 0.1250 kg/ha): 9.0 | Preemergence herbicidal rating CASOB (CASOB (Sicklepod); rate 0.0156 kg/ha): 0.0 | Preemergence herbicidal rating CASOB (CASOB (Sicklepod); rate 0.0313 kg/ha): 0.0 | Preemergence herbicidal rating CASOB (CASOB (Sicklepod); rate 0.0625 kg/ha): 0.0 | Preemergence herbicidal rating CASOB (CASOB (Sicklepod); rate 0.1250 kg/ha): 0.0 | Preemergence herbicidal rating CASOB (CASOB (Sicklepod); rate 0.2500 kg/ha): 0.0 | Preemergence herbicidal rating CASOB (CASOB (Sicklepod); rate 0.5000 kg/ha): 3.0 | herbicidal rating ZEAMX (ZEAMX (Corn, Field); rate 0.0156 kg/ha): 4.5 | herbicidal rating ZEAMX (ZEAMX (Corn, Field); rate 0.0313 kg/ha): 7.0 | herbicidal rating ZEAMX (ZEAMX (Corn, Field); rate 0.0625 kg/ha): 7.0 | herbicidal rating ZEAMX (ZEAMX (Corn, Field); rate 0.1250 kg/ha): 7.0 | Preemergence herbicidal rating ABUTH (ABUTH (Velvetleaf) [2]; rate 0.0156 kg/ha): 0.0 | Preemergence herbicidal rating ABUTH (ABUTH (Velvetleaf) [2]; rate 0.0313 kg/ha): 0.0 | Preemergence herbicidal rating ABUTH (ABUTH (Velvetleaf) [2]; rate 0.0625 kg/ha): 4.0 | Preemergence herbicidal rating ABUTH (ABUTH (Velvetleaf) [2]; rate 0.1250 kg/ha): 9.0 | Preemergence herbicidal rating ABUTH (ABUTH (Velvetleaf) [2]; rate 0.2500 kg/ha): 9.0 | Preemergence herbicidal rating ABUTH (ABUTH (Velvetleaf) [2]; rate 0.5000 kg/ha): 9.0 | herbicidal effect rating, ECHORC ([3]; 0.0313 kg/ha): 6.0 | herbicidal effect rating, ECHORC ([3]; 0.0625 kg/ha): 7.0 | herbicidal effect rating, ECHORC ([3]; 0.1250 kg/ha): 7.0 | herbicidal effect rating, ECHORC ([3]; 0.2500 kg/ha): 7.0 | Preemergence herbicidal rating IPOHE ([4]; rate 0.0156 kg/ha): 0.0 | Preemergence herbicidal rating IPOHE ([4]; rate 0.0313 kg/ha): 0.0 | Preemergence herbicidal rating IPOHE ([4]; rate 0.0625 kg/ha): 0.0 | Preemergence herbicidal rating IPOHE ([4]; rate 0.1250 kg/ha): 2.0 | Preemergence herbicidal rating IPOHE ([4]; rate 0.2500 kg/ha): 1.0 | Preemergence herbicidal rating IPOHE ([4]; rate 0.5000 kg/ha): 1.0 | herbicidal rating IPOHE ([5]; rate 0.0156 kg/ha): 9.0 | herbicidal rating IPOHE ([5]; rate 0.0313 kg/ha): 9.0 | herbicidal rating IPOHE ([5]; rate 0.0625 kg/ha): 9.0 | herbicidal rating IPOHE ([5]; rate 0.1250 kg/ha): 9.0 | herbicidal rating SETVI (SETVI (Foxtail, Green); rate 0.0156 kg/ha): 6.0 | herbicidal rating SETVI (SETVI (Foxtail, Green); rate 0.0313 kg/ha): 7.0 | herbicidal rating SETVI (SETVI (Foxtail, Green); rate 0.0625 kg/ha): 9.0 | herbicidal rating SETVI (SETVI (Foxtail, Green); rate 0.1250 kg/ha): 9.0 | Preemergence herbicidal rating AMBEL (AMBEL (Ragweed, Common); rate 0.0156 kg/ha): 0.0 | Preemergence herbicidal rating AMBEL (AMBEL (Ragweed, Common); rate 0.0313 kg/ha): 0.0 | Preemergence herbicidal rating AMBEL (AMBEL (Ragweed, Common); rate 0.0625 kg/ha): 0.0 | Preemergence herbicidal rating AMBEL (AMBEL (Ragweed, Common); rate 0.1250 kg/ha): 2.0 | Preemergence herbicidal rating AMBEL (AMBEL (Ragweed, Common); rate 0.2500 kg/ha): 2.0 | Preemergence herbicidal rating AMBEL (AMBEL (Ragweed, Common); rate 0.5000 kg/ha): 3.0 | Preemergence herbicidal rating ECHCG (ECHCG (Barnyardgrass); rate 0.0156 kg/ha): 0.0 | Preemergence herbicidal rating ECHCG (ECHCG (Barnyardgrass); rate 0.0313 kg/ha): 0.0 | Preemergence herbicidal rating ECHCG (ECHCG (Barnyardgrass); rate 0.0625 kg/ha): 0.0 | Preemergence herbicidal rating ECHCG (ECHCG (Barnyardgrass); rate 0.1250 kg/ha): 0.0 | Preemergence herbicidal rating ECHCG (ECHCG (Barnyardgrass); rate 0.2500 kg/ha): 0.0 | Preemergence herbicidal rating ECHCG (ECHCG (Barnyardgrass); rate 0.5000 kg/ha): 1.0 | herbicidal rating GLXMAW ([6]; rate 0.0156 kg/ha): 5.5 | herbicidal rating GLXMAW ([6]; rate 0.0313 kg/ha): 6.5 | herbicidal rating GLXMAW ([6]; rate 0.0625 kg/ha): 6.5 | herbicidal rating GLXMAW ([6]; rate 0.1250 kg/ha): 6.5 | herbicidal effect rating, CYPSE (CYPSE (Flatsedge)): 3.0

Cc1ccc(CN2C(=O)CSC2=Nc2cc(-n3c(=O)cc(C(F)(F)F)n(C)c3=O)c(F)cc2Cl)cc1C [Compound 147, 3-{4-Chloro-5-{[3-(3,4-dimethylbenzyl)-4-oxo-2-thiazolidinylidene]amino}-2-fluorophenyl}-1-methyl-6-(trifluoromethyl)-2,4(1H,3H)-pyrimidinedione]
herbicidal rating ABUTH (ABUTH (Velvetleaf) [1]; rate 0.0156 kg/ha): 9.0 | herbicidal rating ABUTH (ABUTH (Velvetleaf) [1]; rate 0.0313 kg/ha): 9.0 | herbicidal rating ABUTH (ABUTH (Velvetleaf) [1]; rate 0.0625 kg/ha): 9.0 | Preemergence herbicidal rating CASOB (CASOB (Sicklepod); [7]): 0.0 | Preemergence herbicidal rating CASOB (CASOB (Sicklepod); [8]): 0.0 | Preemergence herbicidal rating CASOB (CASOB (Sicklepod); [9]): 0.0 | Preemergence herbicidal rating CASOB (CASOB (Sicklepod); [10]): 0.0 | Preemergence herbicidal rating CASOB (CASOB (Sicklepod); [11]): 5.0 | herbicidal rating ZEAMX (ZEAMX (Corn, Field); rate 0.0156 kg/ha): 4.0 | herbicidal rating ZEAMX (ZEAMX (Corn, Field); rate 0.0313 kg/ha): 4.5 | herbicidal rating ZEAMX (ZEAMX (Corn, Field); rate 0.0625 kg/ha): 4.5 | Preemergence herbicidal rating ABUTH (ABUTH (Velvetleaf) [2]; [7]): 0.0 | Preemergence herbicidal rating ABUTH (ABUTH (Velvetleaf) [2]; [8]): 0.0 | Preemergence herbicidal rating ABUTH (ABUTH (Velvetleaf) [2]; [9]): 0.0 | Preemergence herbicidal rating ABUTH (ABUTH (Velvetleaf) [2]; [10]): 4.0 | Preemergence herbicidal rating ABUTH (ABUTH (Velvetleaf) [2]; [11]): 7.0 | herbicidal effect rating, ECHORC ([3]; 0.0313 kg/ha): 5.0 | herbicidal effect rating, ECHORC ([3]; 0.0625 kg/ha): 7.0 | herbicidal effect rating, ECHORC ([3]; 0.1250 kg/ha): 9.0 | herbicidal effect rating, ECHORC ([3]; 0.2500 kg/ha): 9.0 | Preemergence herbicidal rating IPOHE [4, 7]: 0.0 | Preemergence herbicidal rating IPOHE [4, 8]: 0.0 | Preemergence herbicidal rating IPOHE [4, 9]: 0.0 | Preemergence herbicidal rating IPOHE [4, 10]: 0.0 | Preemergence herbicidal rating IPOHE [4, 11]: 0.0 | herbicidal rating IPOHE ([5]; rate 0.0156 kg/ha): 9.0 | herbicidal rating IPOHE ([5]; rate 0.0313 kg/ha): 9.0 | herbicidal rating IPOHE ([5]; rate 0.0625 kg/ha): 9.0 | herbicidal rating SETVI (SETVI (Foxtail, Green); rate 0.0156 kg/ha): 1.0 | herbicidal rating SETVI (SETVI (Foxtail, Green); rate 0.0313 kg/ha): 1.0 | herbicidal rating SETVI (SETVI (Foxtail, Green); rate 0.0625 kg/ha): 2.0 | Preemergence herbicidal rating AMBEL (AMBEL (Ragweed, Common); [7]): 0.0 | Preemergence herbicidal rating AMBEL (AMBEL (Ragweed, Common); [8]): 0.0 | Preemergence herbicidal rating AMBEL (AMBEL (Ragweed, Common); [9]): 0.0 | Preemergence herbicidal rating AMBEL (AMBEL (Ragweed, Common); [10]): 1.0 | Preemergence herbicidal rating AMBEL (AMBEL (Ragweed, Common); [11]): 4.0 | Preemergence herbicidal rating ECHCG (ECHCG (Barnyardgrass); [7]): 0.0 | Preemergence herbicidal rating ECHCG (ECHCG (Barnyardgrass); [8]): 0.0 | Preemergence herbicidal rating ECHCG (ECHCG (Barnyardgrass); [9]): 0.0 | Preemergence herbicidal rating ECHCG (ECHCG (Barnyardgrass); [10]): 0.0 | Preemergence herbicidal rating ECHCG (ECHCG (Barnyardgrass); [11]): 0.0 | herbicidal rating GLXMAW ([6]; rate 0.0156 kg/ha): 5.5 | herbicidal rating GLXMAW ([6]; rate 0.0313 kg/ha): 5.5 | herbicidal rating GLXMAW ([6]; rate 0.0625 kg/ha): 6.0 | herbicidal effect rating, CYPSE (CYPSE (Flatsedge)): 0.0
